This is an account of results in patent US12048686B2, “Compositions and methods for activating NRF2-dependent gene expression” (The University of Chicago, priority 2018, dated 2024).

The test system of this test is IMR32 cells. Description: Quantitative metabolomic profiling of IMR32 cells. Format: cell-based. As to the method:
Quantitative Metabolomic Profiling. For polar metabolite profiling experiments, cells were grown in 15 cm plates and cultured in RPMI supplemented with 10% FBS, 2 mM L-glutamine and 1% P/S prior to media replacement containing either vehicle (DMSO) or the indicated dose of CBR-470-1. Following incubation for the appropriate time, cells were scraped into ice-cold PBS and isolated by centrifugation at 1,400 g at 4° C. Cell pellets were resuspended in 300 μl of an 80:20 mixture of cold MeOH/H2O, an internal standard was added (10 nmol d3-serine; Sigma Aldrich), and the suspension was sonicated (Fisher Scientific FB-505) for 5 seconds followed by a 10 minute centrifugation at 16,000 g. […] Metabolite peak transitions and retention times are listed in Table 2 and were confirmed by running standards for measured glycolytic, PPP, CAC and co-factor metabolites. 2-phosphoglycerate and 3-phosphoglycerate isomers were quantified in aggregate (2PG/3PG). Relative metabolite abundance was quantified by integrated peak area for the given MRM-transition, and all metabolite levels were normalized to internal standard extracted ion intensity values for d3-serine. These parameters were used to quantify all metabolites, with the exception of 1,3-BPG and MGx, which required chemical derivitization to stable intermediates prior to LC-MS/MS quantification, as previously reported^20, 33. […]

Turning to `CC(C)CN[C@H]1CS(=O)(=O)C[C@@H]1S(=O)(=O)c1ccc(Cl)cc1` [CBR-470-1], the “downstream metabolites (3PG, lactate)” value is given as “depletion of downstream metabolites” and the “metabolite levels upstream of PGK1 (BPG, GAP)” value is listed as “rapid increase in metabolite levels upstream of PGK1”.
